Laboratory results published in PubChem BioAssay AID1963976 (Molecular Pharmacology Branch, DTP, NCI, 2024).

Tested on: 435261-313-R-J1-PDC tumor spheroid viability
Assay: Anticancer human tumor 435261-313-R-J1-PDC patient-derived colon adenocarcinoma cell line growth inhibition [PI3K]
Settings: spheroids with HUVEC and MSC; for IC50: curve of first compound; for viability, T/C: stronger effect = lower value
How it was run: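 We assembled tumor spheroids that included a stromal compartment of HUVEC and MSCs, then exposed them to targeted agents alone and together with PI3K pathway inhibitors. Concentration series descended by half-log from clinically achievable Cmax levels. Viability served as the endpoint.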

[1] = second compound 0.00316 µM, first compound 0.0316 µM
[2] = second compound 0.00316 µM, first compound 0.1 µM
[3] = second compound 0.01 µM, first compound 0.0316 µM
[4] = second compound 0.01 µM, first compound 0.1 µM
[5] = second compound 0.0316 µM, first compound 0.0316 µM
[6] = second compound 0.0316 µM, first compound 0.1 µM
[7] = second compound 0.1 µM, first compound 0.0316 µM
[8] = second compound 0.1 µM, first compound 0.1 µM
[9] = second compound 0.316 µM, first compound 0.0316 µM
[10] = second compound 0.316 µM, first compound 0.1 µM
[11] = second compound 1 µM, first compound 0.0316 µM
[12] = second compound 1 µM, first compound 0.1 µM

Structure (SMILES): CC(C)n1nc(-c2ccc3oc(N)nc3c2)c2c(N)ncnc21 + COc1c(OCCCN2CCOCC2)ccc2c3n(c(=NC(=O)c4cnc(N)nc4)nc12)CCN3
- IC50 (second compound 0.00316 µM): 11.8 nM
- IC50 (second compound 0.01 µM): 1.34 nM
- IC50 (second compound 0.0316 µM): < 0.316 nM
- IC50 (second compound 0.1 µM): < 0.316 nM
- IC50 (second compound 0.316 µM): < 0.316 nM
- IC50 (second compound 1 µM): < 0.316 nM
- viability, T/C (second compound 0.00316 µM, first compound 0.000316 µM): 66.9%
- viability, T/C (second compound 0.00316 µM, first compound 0.001 µM): 47.5%
- viability, T/C (second compound 0.00316 µM, first compound 0.00316 µM): 74.6%
- viability, T/C (second compound 0.00316 µM, first compound 0.01 µM): 51.4%
- viability, T/C [1]: 27.4%
- viability, T/C [2]: 12.1%
- viability, T/C (second compound 0.01 µM, first compound 0.000316 µM): 48.1%
- viability, T/C (second compound 0.01 µM, first compound 0.001 µM): 56.3%
- viability, T/C (second compound 0.01 µM, first compound 0.00316 µM): 46.8%
- viability, T/C (second compound 0.01 µM, first compound 0.01 µM): 32.2%
- viability, T/C [3]: 21.7%
- viability, T/C [4]: 10.8%
- viability, T/C (second compound 0.0316 µM, first compound 0.000316 µM): 25.7%
- viability, T/C (second compound 0.0316 µM, first compound 0.001 µM): 22.9%
- viability, T/C (second compound 0.0316 µM, first compound 0.00316 µM): 24%
- viability, T/C (second compound 0.0316 µM, first compound 0.01 µM): 19.4%
- viability, T/C [5]: 16.4%
- viability, T/C [6]: 9.19%
- viability, T/C (second compound 0.1 µM, first compound 0.000316 µM): 16.6%
- viability, T/C (second compound 0.1 µM, first compound 0.001 µM): 14.2%
- viability, T/C (second compound 0.1 µM, first compound 0.00316 µM): 14%
- viability, T/C (second compound 0.1 µM, first compound 0.01 µM): 13.6%
- viability, T/C [7]: 10.3%
- viability, T/C [8]: 5.04%
- viability, T/C (second compound 0.316 µM, first compound 0.000316 µM): 8.4%
- viability, T/C (second compound 0.316 µM, first compound 0.001 µM): 7.74%
- viability, T/C (second compound 0.316 µM, first compound 0.00316 µM): 6.9%
- viability, T/C (second compound 0.316 µM, first compound 0.01 µM): 6.3%
- viability, T/C [9]: 4.52%
- viability, T/C [10]: 2.1%
- viability, T/C (second compound 1 µM, first compound 0.000316 µM): 4.2%
- viability, T/C (second compound 1 µM, first compound 0.001 µM): 4.04%
- viability, T/C (second compound 1 µM, first compound 0.00316 µM): 3.72%
- viability, T/C (second compound 1 µM, first compound 0.01 µM): 3.28%
- viability, T/C [11]: 3.57%
- viability, T/C [12]: 2.22%

Structure (SMILES): Cn1nccc1Nc1nccc(-c2ccn(C(CO)c3ccc(Cl)c(F)c3)c(=O)c2)n1 (centres undefined) + CC(Nc1ccc2c(c1)OCCn1cc(N3C(=O)OCC3C(F)F)nc1-2)C(N)=O
- IC50 (second compound 0.00316 µM): 421 nM
- IC50 (second compound 0.01 µM): 218 nM
- IC50 (second compound 0.0316 µM): 105 nM
- IC50 (second compound 0.1 µM): < 31.6 nM
- IC50 (second compound 0.316 µM): < 31.6 nM
- IC50 (second compound 1 µM): < 31.6 nM
- viability, T/C [1]: 90.4%
- viability, T/C [2]: 73.3%
- viability, T/C (second compound 0.00316 µM, first compound 0.316 µM): 51.7%
- viability, T/C (second compound 0.00316 µM, first compound 1 µM): 40.1%
- viability, T/C (second compound 0.00316 µM, first compound 3.16 µM): 22.1%
- viability, T/C (second compound 0.00316 µM, first compound 10 µM): 12.8%
- viability, T/C [3]: 72.6%
- viability, T/C [4]: 71.7%
- viability, T/C (second compound 0.01 µM, first compound 0.316 µM): 39.5%
- viability, T/C (second compound 0.01 µM, first compound 1 µM): 25.6%
- viability, T/C (second compound 0.01 µM, first compound 3.16 µM): 27%
- viability, T/C (second compound 0.01 µM, first compound 10 µM): 11.7%
- viability, T/C [5]: 68%
- viability, T/C [6]: 52.1%
- viability, T/C (second compound 0.0316 µM, first compound 0.316 µM): 28.7%
- viability, T/C (second compound 0.0316 µM, first compound 1 µM): 18.9%
- viability, T/C (second compound 0.0316 µM, first compound 3.16 µM): 14.9%
- viability, T/C (second compound 0.0316 µM, first compound 10 µM): 8.18%
- viability, T/C [7]: 38.6%
- viability, T/C [8]: 23.1%
- viability, T/C (second compound 0.1 µM, first compound 0.316 µM): 16.9%
- viability, T/C (second compound 0.1 µM, first compound 1 µM): 11.8%
- viability, T/C (second compound 0.1 µM, first compound 3.16 µM): 10.1%
- viability, T/C (second compound 0.1 µM, first compound 10 µM): 5.9%
- viability, T/C [9]: 19.6%
- viability, T/C [10]: 16.3%
- viability, T/C (second compound 0.316 µM, first compound 0.316 µM): 9.92%
- viability, T/C (second compound 0.316 µM, first compound 1 µM): 8.05%
- viability, T/C (second compound 0.316 µM, first compound 3.16 µM): 5.78%
- viability, T/C (second compound 0.316 µM, first compound 10 µM): 3.34%
- viability, T/C [11]: 16.8%
- viability, T/C [12]: 12.2%
- viability, T/C (second compound 1 µM, first compound 0.316 µM): 6.71%
- viability, T/C (second compound 1 µM, first compound 1 µM): 6.3%
- viability, T/C (second compound 1 µM, first compound 3.16 µM): 4.27%
- viability, T/C (second compound 1 µM, first compound 10 µM): 0.75%
